Reference: patent US20150025077A1 (COYOTE PHARMACEUTICALS, INC., priority 2012, published 2015)

Assays:
RhoA = test: Active RhoA to total RhoA in Neuro2A cells (G-LISA, ELISA); assay type: cell-based, mouse; settings: 48 hrs treatment, ratio of active RhoA to total RhoA as percentage of DMSO treatments, concentration not given
Experimental: Mouse neuroblastoma Neuro2A cells were cultured in DMEM supplemented with 10% FBS for 24 hrs. […] Cell lysates were quantified and subjected either to active RhoA assay using G-LISA RhoA activation Assay Biochem Kit (Cytoskeleton Inc), or to total RhoA assay using Total RhoA ELISA Kit (Cytoskeleton Inc). The results were calculated as ratio of active RhoA to total RhoA and averaged from 3 biological repeats of one experiment with background subtraction. The data was presented as percentage of DMSO treatments.

HSP70 = HSP70 levels in Neuro 2a cells, ELISA; assay type: cell-based, mouse; settings: 48 hrs compound then 24 hrs GGTI-298
Experimental: Mouse neuroblastoma 2a cells were cultured in DMEM with 10% FBS for 24 hrs. […] After 24 hrs cells were harvested and lysates were prepared and analyzed by ELISA for HSP70. Compound ID numbers in table refer to structures in Table 1 and Table 2.

Rap1 = test: Prenylation of Rap1 in Neuro2A cells, western blotting; assay type: cell-based, mouse; settings: 100 nM; with GGTI-298; percentage of control (GGTI only)
Experimental: Mouse neuroblastoma Neuro2A cells were cultured in DMEM supplemented with 10% FBS for 24 hrs. The cells were treated with 102GGA derivative compounds for 24 hrs first before GGTase inhibitor GGTI-298 was added to the culture medium for additional 24 hr incubation. […] Both un-prenylated and total Rap1 protein bands were quantified using Image J and normalized to their respective loading control GAPDH. The results for control and each compound treatment were calculated as the ratio of normalized un-prenylated Rap1 to total Rap1, and averaged from two biological repeats of one experiment. The final results were presented as a percentage of the control treatments (GGTI only) from the same batch experiment. The data shown in the chart were averaged from two repeats of one experiment and presented as the ratio of normalized un-prenylated Rap1 to total Rapt Compound ID numbers in table refer to structures in Table 1 and Table 2.

Sprague Dawley rats = test: Kainic acid stereotactic hippocampus injection model, fraction of cells damaged; assay type: in vivo, rat; settings: KA at 72 hours
Experimental: CNS-102 was administered orally to Sprague Dawley rats at 12 mg/kg. After dosing, KA was stereotactically injected into the hippocampus at 24, 48, 72, 96 and 168 hours to induce neuron damage. After 24 h, hippocampus tissue was collected, stained, and imaged. The scans were analyzed by Image J to calculate the fraction of cells having KA-induced damage. Average fraction damaged in the hippocampus from ten animals for each treatment (PBS vs. 12 mg/kg CNS-102) by time (24, 48, 72, 96 and 168 hours) combination was estimated with PROC MIXED in SAS. Comparisons of the CNS-102 treatment groups to the pooled PBS treatment at the different times can be made, giving the results tabulated below.
The fraction of cells damaged in the kainic acid model was determined on 130 rats, each receiving one dose of CNS-102 at either 0, 1, 3, 6, 12 or 24 mg/kg. PBS was used for dosing at 0 mg/kg. The linear model of the log10 percent damage versus concentration is graphically shown FIG. 5.
After dosing, KA was stereotactically injected into the hippocampus at 72 hours to induce neuron damage. After 24 h, hippocampus tissue was collected, stained, and imaged. The scans were analyzed by Image J to calculate the fraction of cells having KA-induced damage.
The indicated compounds or vehicle control were orally dosed to Sprague-Dawley rats, and Kainic acid was injected. After dosing, KA was stereotactically injected into the hippocampus at 72 hours to induce neuron damage. After 24 h, hippocampus tissue was collected, stained, and imaged. The scans were analyzed by Image J to calculate the fraction of cells having KA-induced damage. Neurons damaged by Kainic acid (mean of hippocampus CA3 neurons damaged) were quantified.

SMILES | % Relative RhoGTPase Activity (RhoA) [%] | HSP70 level, ELISA signal (absence of compounds normalized as 1.00) (HSP70; 100 nM) | unprenylated/total RAP1 (%) (Rap1) | HSP70 level, ELISA signal (absence of compounds normalized as 1.00) (HSP70; 10uM) | also measured
CCOc1cc(OCC)cc(C(=O)OC/C=C(\C)CC/C=C(\C)CC/C=C(\C)CCC=C(C)C)c1 [Compound 2i, 2E, 6E, 10E-Geranylgeranyl-3′,5′-diethoxybenzoate] | 105.0 | 1.08 | 92 |  | 
CCCCCCNC(=O)OC/C=C(\C)CC/C=C(\C)CC/C=C(\C)CCC=C(C)C [Compound 7e, n-Hexyl 2E,6E,10E-geranylgeranyl carbamate] |  |  | 64 |  | Mean of Hippocampus CA3 Neurons Damaged (Sprague Dawley rats; 12 mg/kg oral): 18%
COC(=O)[C@@H](NC(=O)OC/C=C(\C)CC/C=C(\C)CC/C=C(\C)CCC=C(C)C)C(C)C [Compound 7j, Methyl 2-(S)-(−)-3-methylbutyrate 2E,6E,10E-geranylgeranyl Carbamate] |  |  | 63 |  | Mean of Hippocampus CA3 Neurons Damaged (Sprague Dawley rats; 1 mg/kg oral): 13%
CC(C)=CCC/C(C)=C/CC/C(C)=C/COC(=O)NC1CCCCC1 [Compound 8f, Cyclohexyl 2E, 6E-farnesyl carbamate] | 104.6 |  |  | 1.29 | 
CCC(C)NC(=O)OC/C=C(\C)CC/C=C(\C)CCC=C(C)C (stereo not drawn) [Compound 8g, Sec-Butyl 2E, 6E-farnesyl carbamate] | 111.3 |  |  | 1.51 | HSP70 level, ELISA signal (absence of compounds normalized as 1.00) (HSP70; 10 nM): 1.17
C=CCNC(=O)OC/C=C(\C)CC/C=C(\C)CCC=C(C)C [Compound 8j, Allyl 2E, 6E-farnesyl carbamate] | 105.6 |  |  | 1.31 | HSP70 level, ELISA signal (absence of compounds normalized as 1.00) (HSP70; 10 nM): 1.13
CCOC(=O)CCNC(=O)OC/C=C(\C)CC/C=C(\C)CCC=C(C)C [Compound 8m, Carboethoxy-2′-ethyl 2E, 6E-farnesyl carbamate] | 111.4 |  |  | 1.05 | 
CC(C)=CCC/C(C)=C/CC/C(C)=C/COC(=O)Nc1ccccc1 [Compound 8o, Phenyl 2E, 6E-farnesyl carbamate] | 82.1 |  |  | 0.99 | 
CCNC(=S)OC/C=C(\C)CC/C=C(\C)CC/C=C(\C)CCC=C(C)C [Compound 10b, Ethyl 2E,6E,10E-geranylgeranyl thiocarbamate] | 86.2 | 1.06 |  | 1.34 | 
CCOC(=O)CNC(=S)OC/C=C(\C)CC/C=C(\C)CC/C=C(\C)CCC=C(C)C [Compound 10d, Ethoxycarbonylmethyl 2E,6E,10E-geranylgeranyl thiocarbamate] |  |  | 62 | 1.36 | Mean of Hippocampus CA3 Neurons Damaged (Sprague Dawley rats; 2 mg/kg oral): 14%
CC(C)=CCC/C(C)=C/CC/C(C)=C/CC/C(C)=C/COC(=S)NC1CC1 [Compound 10f, Cyclopropyl 2E,6E,10E-geranylgeranyl thiocarbamate] |  |  | 40 | 1.57 | Mean of Hippocampus CA3 Neurons Damaged (Sprague Dawley rats; 20 mg/kg oral): 16%
COCCNC(=S)OC/C=C(\C)CC/C=C(\C)CC/C=C(\C)CCC=C(C)C [Compound 10i, Methoxy-2′-ethyl 2E,6E,10E-geranylgeranyl thiocarbamate] |  | 1.04 | 83 | 1.08 | Mean of Hippocampus CA3 Neurons Damaged (Sprague Dawley rats; 2 mg/kg oral): 22%
CC(C)=CCC/C(C)=C/CC/C(C)=C/CC/C(C)=C/COC(=S)NC1CC2CCC1C2 (stereo not drawn) [Compound 10j, Exo-Norbornyl 2E,6E,10E-geranylgeranyl thiocarbamate] |  | 1.06 | 91 | 1.08 | 
CC(C)=CCC/C(C)=C/CC/C(C)=C/CC/C(C)=C/COC(=S)NCCN1CCCCC1 [Compound 10l, Piperidinyl-2′-ethyl 2E,6E,10E-geranylgeranyl thiocarbamate] |  | 1.16 | 164 | 1.37 | Mean of Hippocampus CA3 Neurons Damaged (Sprague Dawley rats; 20 mg/kg oral): 14%
CC(C)=CCC/C(C)=C/CC/C(C)=C/CC/C(C)=C/COC(=S)NCCN1CCOCC1 [Compound 10m, Morpholinyl-2′-ethyl 2E,6E,10E-geranylgeranyl thiocarbamate] |  |  | 100 | 1.06 | 
CC(C)=CCC/C(C)=C/CC/C(C)=C/CC/C(C)=C/c1cnco1 [Compound 14, 5-((1E,5E,9E)-2,6,10,14-tetramethylpentadeca-1,5,9,13-tetraen-1-yl)oxazole] |  |  | 96 | 0.96 | Mean of Hippocampus CA3 Neurons Damaged (Sprague Dawley rats; 2 mg/kg oral): 13%
COC(=O)[C@@H](NC(=O)OC(C)CC/C=C(\C)CC/C=C(\C)CCC=C(C)C)C(C)C (stereo partly drawn) [Compound 20j, 5E,9E-farnesyl prop-2-yl Methyl 2-(S)-(−)-3-methylbutyrate Carbamate] | 85.9 |  | 59 |  | 
CC(C)=CCC/C(C)=C/CC/C(C)=C/CC/C(C)=C/C1=N[C@@H](C(C)C)CO1 [Compound 27a, (S)-4-isopropyl-2-((1E,5E,9E)-2,6,10,14-tetramethylpentadeca-1,5,9,13-tetraen-1-yl)-4,5-dihydrooxazole] |  | 1.02 | 96 |  | Mean of Hippocampus CA3 Neurons Damaged (Sprague Dawley rats; 2 mg/kg oral): 11%
CC(C)=CCC/C(C)=C/CC/C(C)=C/CC/C(C)=C/C1=N[C@@H](C)CO1 [Compound 27b, (S)-4-methyl-2-((1E,5E,9E)-2,6,10,14-tetramethylpentadeca-1,5,9,13-tetraen-1-yl)-4,5-dihydrooxazole] | 89.0 | 1.16 |  | 1.22 | 
CC(C)=CCC/C(C)=C/CC/C(C)=C/CC/C(C)=C/C1=N[C@@H](Cc2ccccc2)CO1 [Compound 27g, (S)-4-benzyl-2-((1E,5E,9E)-2,6,10,14-tetramethylpentadeca-1,5,9,13-tetraen-1-yl)-4,5-dihydrooxazole] |  |  | 129 | 1.11 | 
CC(C)=CCC/C(C)=C/CC/C(C)=C/CC/C(C)=C/C1=N[C@H](C(C)C)C(=O)O1 [Compound 37a, (R)-4-isopropyl-2-((1E,5E,9E)-2,6,10,14-tetramethylpentadeca-1,5,9,13-tetraen-1-yl)oxazol-5(4H)-one] | 106.8 | 1.04 |  | 1.10 | 
CC(C)=CCC/C(C)=C/CC/C(C)=C/CC/C(C)=C/C1=N[C@@H](CC(C)C)C(=O)O1 [Compound 37d, (S)-4-isobutyl-2-((1E,5E,9E)-2,6,10,14-tetramethylpentadeca-1,5,9,13-tetraen-1-yl)oxazol-5(4H)-one] |  |  | 128 | 1.04 | 
CNC(=S)OC/C=C(\C)CC/C=C(\C)CCC=C(C)C [Compound 43, O-((2E,6E)-3,7,11-trimethyldodeca-2,6,10-trien-1-yl) methylcarbamothioate] | 102.7 |  |  | 0.95 | 
CC(C)=CCC/C(C)=C/CC/C(C)=C/CC/C(C)=C/CCC1(C)OCCO1 [Compound 105] | 85.1 |  | 64 |  | 
